Reference: the supplement of paper PMC10307832

Columns and labels:
Test in all cases: relative viability (nuclei count vs DMSO), 5 days (fraction); higher = more cells survive
NVP-TAE684 + Navitoclax = compound: COc1cc(N2CCC(N3CCN(C)CC3)CC2)ccc1Nc1ncc(Cl)c(Nc2ccccc2S(=O)(=O)C(C)C)n1 [NVP-TAE684] + CC1(C)CCC(c2ccc(Cl)cc2)=C(CN2CCN(c3ccc(C(=O)NS(=O)(=O)c4ccc(N[C@H](CCN5CCOCC5)CSc5ccccc5)c(S(=O)(=O)C(F)(F)F)c4)cc3)CC2)C1 [Navitoclax] (partner 0.5 µM)
Summary of the method: (§1)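 Medians of duplicate plates are given as relative viability. That measure is the nuclei count in treated wells divided by the count in vehicle wells. Counts were taken on 4× images of lung cancer cell lines in 1536-well plates, 5 days after pin-tool dosing the day after seeding with one drug alone or a fixed anchor-drug dose plus five library-drug doses (not always all listed) in √10 steps.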

CUDC-101 + Lapatinib = compound: C#Cc1cccc(Nc2ncnc3cc(OC)c(OCCCCCCC(=O)NO)cc23)c1 [CUDC-101] + CS(=O)(=O)CCNCc1ccc(-c2ccc3ncnc(Nc4ccc(OCc5cccc(F)c5)c(Cl)c4)c3c2)o1 [Lapatinib] (partner 2 µM)
Summary of the method: as §1

Vandetanib + Lapatinib = compound: COc1cc2/c(=N/c3ccc(Br)cc3F)nc[nH]c2cc1OCC1CCN(C)CC1 [Vandetanib] + CS(=O)(=O)CCNCc1ccc(-c2ccc3ncnc(Nc4ccc(OCc5cccc(F)c5)c(Cl)c4)c3c2)o1 [Lapatinib] (partner 2 µM)
Summary of the method: as §1

[1] = compound: C1=CC=C2C(=C1)N=C(S2)C(C#N)C3=NC(=NC=C3)NCCC4=CN=CC=C4 + CC(=O)Nc1cccc(-n2c(=O)n(C3CC3)c(=O)c3c(Nc4ccc(I)cc4F)n(C)c(=O)c(C)c32)c1 [Trametinib] (partner 0.02 µM)
Summary of the method: as §1

Cell Line | relative viability (NVP-TAE684 + Navitoclax; first compound 0.2 µM) | relative viability (NVP-TAE684 + Navitoclax; first compound 0.6325 µM) | relative viability (NVP-TAE684 + Navitoclax; first compound 2 µM) | relative viability (CUDC-101 + Lapatinib; first compound 0.01 µM) | relative viability (CUDC-101 + Lapatinib; first compound 0.03162 µM) | relative viability (CUDC-101 + Lapatinib; first compound 0.1 µM) | relative viability (CUDC-101 + Lapatinib; first compound 0.3162 µM) | relative viability (CUDC-101 + Lapatinib; first compound 1 µM) | relative viability (Vandetanib + Lapatinib; first compound 0.02 µM) | relative viability (Vandetanib + Lapatinib; first compound 0.06325 µM) | relative viability (Vandetanib + Lapatinib; first compound 0.2 µM) | relative viability (Vandetanib + Lapatinib; first compound 0.6325 µM) | relative viability (Vandetanib + Lapatinib; first compound 2 µM) | relative viability ([1]; first compound 0.01581 µM) | relative viability ([1]; first compound 0.05 µM) | relative viability ([1]; first compound 0.1581 µM) | relative viability ([1]; first compound 0.5 µM) | relative viability ([1]; first compound 0.005 µM)
NCI-H1792 | 0.533 | 0.579 | 0.558 | 0.91 | 0.883 | 0.877 | 0.913 | 0.825 | 0.886 | 0.824 | 0.869 | 0.874 | 0.862 | 0.44 | 0.421 | 0.387 | 0.385 | –
NCI-H1355 | 0.882 | 0.992 | 0.622 | 1.04 | 0.825 | 1.05 | 0.895 | 0.679 | 0.984 | 0.926 | 0.963 | 1.05 | 0.924 | 0.425 | 0.473 | 0.494 | 0.324 | 0.439
HCC-827 | 0.935 | 0.982 | 0.978 | 0.206 | 0.181 | 0.178 | 0.174 | 0.218 | 0.195 | 0.18 | 0.183 | 0.181 | 0.185 | 0.534 | 0.497 | 0.486 | 0.497 | 0.503
NCI-H1944 | 1.19 | 0.961 | 1.08 | 0.777 | 0.747 | 0.799 | 0.709 | 0.5 | 0.818 | 0.848 | 0.798 | 0.845 | 0.808 | 0.463 | 0.379 | 0.405 | 0.398 | 0.429
NCI-H2405 | 0.897 | 0.709 | 0.437 | 1.25 | 1.05 | 1.19 | 1.27 | 0.917 | 1.1 | 0.842 | 1.25 | 1.14 | 0.316 | 0.645 | 0.63 | 0.643 | 0.599 | 0.582
HCC-366 | 1.18 | 0.999 | 1.02 | 1.07 | 1.06 | 1.07 | 0.755 | 0.459 | 0.931 | 0.978 | 1.18 | 1.18 | 1.09 | 0.378 | 0.314 | 0.404 | 0.307 | 0.281
NCI-H838 | 1.43 | 1.09 | 0.403 | 0.934 | 1 | 1.03 | 1.11 | 0.552 | 0.937 | 0.953 | 0.958 | 0.958 | 0.99 | 0.507 | 0.492 | 0.561 | 0.593 | 0.576
NCI-H520 | 1.11 | 1.13 | 0.357 | 0.94 | – | 0.879 | 0.76 | 0.323 | 0.679 | 0.807 | 0.918 | 0.936 | 0.831 | 0.684 | 0.765 | 0.799 | 0.824 | 0.659
HOP-62 | 1.23 | 1.13 | 1.1 | 1.03 | 0.909 | 1.05 | 0.768 | 0.821 | 0.81 | 0.923 | 1.07 | 0.932 | 0.892 | 0.394 | 0.394 | 0.37 | 0.366 | 0.359
NCI-H2170 | 0.56 | 0.585 | 0.591 | 0.27 | 0.266 | 0.297 | 0.227 | 0.232 | 0.264 | 0.253 | 0.225 | 0.271 | 0.269 | 0.924 | 0.884 | 1.04 | 0.655 | 0.623
NCI-H1651 | 1.41 | 1.07 | 0.964 | 0.869 | 0.813 | 0.884 | 0.771 | 0.325 | 0.776 | 0.834 | 0.743 | 0.698 | 0.846 | 0.831 | 0.827 | 0.933 | 0.857 | 0.825
NCI-H460 | – | 1.14 | 0.407 | 1.04 | 0.994 | 0.873 | 0.919 | 0.339 | 0.878 | 0.962 | 0.969 | 0.951 | 0.874 | 0.137 | 0.131 | 0.175 | 0.141 | –
NCI-H1734 | 0.844 | 0.91 | 0.769 | 1.1 | 0.988 | 1.07 | 1.09 | 0.841 | 0.951 | 1.02 | 1.11 | 1.04 | 0.991 | 0.745 | 0.578 | 0.75 | 0.649 | 0.629
NCI-H1915 | 0.795 | 0.806 | 0.752 | 1.02 | 1.04 | 0.977 | 0.911 | 0.837 | 0.905 | 0.972 | 1.05 | 0.93 | 0.928 | 0.318 | 0.304 | 0.329 | 0.305 | –
NCI-H2228 | 0.443 | 0.421 | 0.129 | 1.06 | 1.49 | 1.12 | 0.977 | 0.412 | 1.32 | 0.903 | – | 1.32 | 1.23 | 0.447 | 0.512 | 0.526 | 0.46 | 0.357
NCI-H1975 | 1.06 | – | 0.513 | 1.02 | 0.913 | 0.844 | 0.82 | 0.411 | 0.846 | 0.831 | 0.862 | 0.858 | 0.81 | 0.362 | 0.293 | 0.414 | 0.329 | 0.377
NCI-H2087 | 1.11 | 1.17 | 0.766 | 0.986 | 1.37 | 1.04 | 1.04 | 0.761 | 0.894 | 0.916 | 0.988 | 1.06 | 1.08 | 0.201 | 0.203 | 0.212 | 0.186 | 0.222
LCLC-97TM1 | 0.321 | 0.495 | 0.13 | 0.905 | 0.766 | 1.13 | 1.01 | 0.807 | 0.864 | 1.05 | 0.909 | 0.841 | 0.8 | 0.202 | 0.172 | 0.239 | 0.2 | 0.152
